Test results: patent US9675552B2, “Use of stabilized granules containing glyceryl trinitrate for arteriogenesis” (G. Pohl-Boskamp GmbH & Co. KG, priority 2012, dated 2017)
“And” between values parts separate entries of the source, which are not always exact repeats. Identical values can stand only once.

Tested on: left anterior descending coronary artery (LAD) occlusion, Sprague-Dawley rats
Experiment: Ventricular arrhythmias (Lown classification, VPB-Score) during final permanent LAD occlusion
Type: in vivo, rat

| SMILES | rats with class IIIa arrhythmias (Lown) (5 DAYS RIP, during FPO) [%] | rats with class IVb arrhythmias (Lown) (5 DAYS RIP, during FPO) [%] | rats with class 0 arrhythmias (Lown) (rat, in vivo) [%] | rats with class IIIa arrhythmias (Lown) (rat, in vivo) [%] | rats with class IVb arrhythmias (Lown) (rat, in vivo) |
| --- | --- | --- | --- | --- | --- |
| CC(=O)Oc1ccccc1C(=O)O [ASA, acetyl salicylic acid] | 16.7 | 83.3 | – | – | – |
| O=[N+]([O-])OCC(CO[N+](=O)[O-])O[N+](=O)[O-] [NTG, nitroglycerin] | – | – | 57.1 | 14.3 | 85.7% and 42.9% |
